Data as given in patent US20170071852A1, “THERAPEUTIC OR PREVENTIVE AGENT FOR MEIBOMIAN GLAND DYSFUNCTION OR MEIBOMIAN GLAND BLOCKAGE” (Santen Pharmaceutical Co., Ltd., priority 2012, published 2017).
“Also recorded” adds a separate entry of the source.

How the values were obtained:
female Lewis rats = experiment: Test for meibomian gland peripheral telangiectasia by administration of complete Freund's adjuvant using rats; assay type: in vivo, rat; conditions: for Telangiectasia score (mean): six eyes
Description: 1. Test for Meibomian Gland Peripheral Telangiectasia by Administration of Full Friend's Adjuvant Using Rats Clarithromycin (LKT Laboratories, Inc.), concentrated glycerin, dibasic sodium phosphate hydrate and polyoxyl 40 stearate were added to purified water and dissolved to prepare a test sample comprising clarithromycin at a final concentration of 1% (w/v), at pH 7. Twenty five μl of complete Freund's adjuvant was administered to one site of the right upper eyelid of female Lewis rats at five weeks age. On the seventh day from the initiation, the periphery of the meibomian gland orifices on the right upper eyelid was observed using a slit-lamp and a telangiectasia score was determined. The eyelid margin of the upper eyelid was divided into three segments: ear, middle and nasal sites, and based on criteria described in Table 1, scores of telangiectasia peripheral to the meibomian gland orifices in each segment were determined and the sum of the scores in three segments were calculated as the telangiectasia score of one eye. The presence or absence of dilation of the capillaries was determined based on whether a capillary that is usually not visible could be ascertained as a result of enlargement of the capillary diameter. [table] After dividing into a saline-administered group and a 1% (w/v) clarithromycin aqueous solution-administered groups, the test was carried out with six eyes in each group so as to minimize variations in mean scores, and from the 8th day after initiation, saline (5 μl/eye, six times per day) or 1% (w/v) clarithromycin aqueous solution (5 μl/eye, three or six times per day) were instilled into the right eyes for 21 days. At 28 days after initiation, the peripheries of the meibomian gland orifices on the right upper eyelids were observed using a slit-lamp and the telangiectasia score was determined.

[1] = test system: Male Hos:HR-1 hairless mice; experiment: Test for obstruction of meibomian gland orifices by feeding HR-AD diet using hairless mice; assay type: in vivo, mouse; conditions: for Number of obstructed meibomian gland orifices (mean, out of eight): six eyes
Description: 2. Test for Obstruction of Meibomian Gland Orifices by Feeding HR-AD Diet Using Hairless Mice A 1% (w/v) clarithromycin test solution was prepared by the same operation as described in Pharmacological Test 1. Male Hos:HR-1 hairless mice at five weeks of age were divided into a group of 6 fed a regular diet (CRF-1 diet, manufactured by Oriental Yeast Co., Ltd.); and a group of 12 fed an HR-AD diet (manufactured by Nosan Corporation), and the mice in each respective group were freely allowed to feed the regular diet or HR-AD diet. On the 28th day after the start of the diets, meibomian gland orifices were observed using a slit-lamp and the number of obstructed orifices out of eight meibomian gland orifices of the center of the right upper eyelid were counted. The presence or absence of an obstruction of the meibomian gland orifice was determined based on whether the meibomian gland orifice was in a cloudy and swollen state. The 12 mice in the HR-AD diet group were further divided into a saline-administered group; and a 1% (w/v) clarithromycin aqueous solution-administered group, and testing was carried out with six eyes in each group so as to minimize variations in the mean scores of the number of obstructed meibomian gland orifices in each group; from the 29th day after starting the diets, saline (2 μl/eye, three times per day) or 1% (w/v) clarithromycin aqueous solution (2 μl/eye, three times per day) were instilled for 14 days. At 42 days after starting the diet, meibomian gland orifices were observed using a slit-lamp and the number of obstructed orifices out of eight meibomian gland orifices of the center of the right upper eyelid were counted.

[2] = 42 days after starting HR-AD diet (14 days from starting administration), 1% (w/v) aqueous solution

Q: With `CC[C@H]1OC(=O)[C@H](C)[C@@H](O[C@H]2C[C@@](C)(OC)[C@@H](O)[C@H](C)O2)[C@H](C)[C@@H](O[C@@H]2O[C@H](C)C[C@H](N(C)C)[C@H]2O)[C@](C)(OC)C[C@@H](C)C(=O)[C@H](C)[C@@H](O)[C@]1(C)O` [clarithromycin, Clarithromycin] as the compound, how does the “Telangiectasia score (mean)” value (female Lewis rats; 7 days after initiation (day 0 from start of administration, baseline), 1% (w/v) aqueous solution group, instilled 3 times per day) read?
A: 5.3

Q: What about the “Telangiectasia score (mean)” value (female Lewis rats; 7 days after initiation (day 0 from start of administration, baseline), 1% (w/v) aqueous solution group, instilled 6 times per day) of the same compound?
A: 5.3

Q: What about the “Telangiectasia score (mean)” value (female Lewis rats; 28 days after initiation (day 21 from start of administration), 1% (w/v) aqueous solution, 5 μl/eye, instilled 3 times per day) of the same compound?
A: 2.8

Q: And the “Telangiectasia score (mean)” value (female Lewis rats; 28 days after initiation (day 21 from start of administration), 1% (w/v) aqueous solution, 5 μl/eye, instilled 6 times per day)?
A: 2.5

Q: And the “Telangiectasia score in the vicinity of the meibomian gland orifices compared to the saline-administered group” value (female Lewis rats; 28 days after initiation (day 21 from start of administration), 1% aqueous solution instilled three or six times per day)?
A: notably improved the telangiectasia score; also recorded: remarkably lower

Q: What about the “Number of obstructed meibomian gland orifices (mean, out of eight)” value ([1]; 28 days after starting feeding HR-AD diet (day 0 from start of administration, baseline), 1% (w/v) aqueous solution group) of the same compound?
A: 5.5

Q: And the Meibomian gland concretion [1, 2]?
A: improved

Q: What about the “Number of obstructed meibomian gland orifices, change in words” value [1, 2] of the same compound?
A: notably reduced the number of obstructions; also recorded: remarkably decreased

Q: And the “Number of obstructed meibomian gland orifices (mean, out of eight)” value ([1]; 42 days after starting feeding HR-AD diet (day 14 from start of administration), 1% (w/v) aqueous solution, 2 μl/eye, three times per day)?
A: 1.8
